Laboratory results published in US20230089073A1 (Carmot Therapeutics, Inc., priority 2021, published 2023).

molecular target: T1, human GLP-1 receptor (Homo sapiens, UniProt P43220); experiment: GLP-1R cAMP Assay; assay type: cell-based; settings: cAMP accumulation in CHO cells stably overexpressing the human GLP-1 receptor; 30 min treatment; HitHunter cAMP kit; read-out: EC50
T1 construct: expressed in transfected cells
How it was run: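 Luminescent enzyme-complementation detection of cAMP, read after cell lysis and overnight incubation, with dose-response curve fitting. Stimulation lasted 30 min, using 20-point triplicate dosing on CHO cells (10,000 per well) stably overexpressing human GLP-1R.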

T1 sequence (P43220 24-463): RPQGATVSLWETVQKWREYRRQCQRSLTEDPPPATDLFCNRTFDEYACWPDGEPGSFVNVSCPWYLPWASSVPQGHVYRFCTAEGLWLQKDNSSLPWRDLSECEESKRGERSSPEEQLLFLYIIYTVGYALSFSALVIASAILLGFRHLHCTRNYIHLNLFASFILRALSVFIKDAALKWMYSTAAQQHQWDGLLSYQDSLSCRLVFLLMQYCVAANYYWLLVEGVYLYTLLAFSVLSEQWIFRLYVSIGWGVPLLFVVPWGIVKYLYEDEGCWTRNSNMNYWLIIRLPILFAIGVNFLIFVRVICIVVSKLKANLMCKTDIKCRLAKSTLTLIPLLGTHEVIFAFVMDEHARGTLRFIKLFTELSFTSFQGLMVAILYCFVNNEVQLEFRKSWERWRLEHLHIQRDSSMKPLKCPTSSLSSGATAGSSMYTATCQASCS

Row | EC50 | Structure (SMILES)
1 | < 50 nM | O=C(O)c1ccc2nc(CN3CC=C(Cc4ccc(COc5ccc(Cl)cc5Cl)o4)CC3)n(C[C@@H]3CCO3)c2c1 [Compound 84, 2-{[4-({5-[(2,4-dichlorophenoxy)methyl]furan-2-yl}methyl)-1,2,3,6-tetrahydropyridin-1-yl]methyl}-1-{[(2S)-oxetan-2-yl]methyl}-1H-1,3-benzodiazole-6-carboxylic acid]
2 | 50 to 500 nM | Cc1ccc(N(C)c2cccc(C=C3CCN(Cc4nc5ccc(C(=O)O)cc5n4C[C@@H]4CCO4)CC3)c2)c(Cl)c1 [Example 106, (S)-2-((4-(3-((2-chloro-4-methylphenyl)(methyl)amino)benzylidene)piperidin-1-yl)methyl)-1-(oxetan-2-ylmethyl)-1H-benzo[d]imidazole-6-carboxylic acid]
3 | < 50 nM | C[C@H]1C[C@@H](Oc2ccnc(COc3ccc(C#N)cc3Cl)n2)CCN1Cc1nc2ccc(C(=O)O)cc2n1C[C@@H]1CCO1 [Compound 477, 2-{[(2S,4S)-4-({2-[(2-chloro-4-cyanophenoxy)methyl]pyrimidin-4-yl}oxy)-2-methylpiperidin-1-yl]methyl}-1-{[(2S)-oxetan-2-yl]methyl}-1H-1,3-benzodiazole-6-carboxylic acid]
4 | < 50 nM | O=C(O)c1ccc2nc(CN3CCC(Oc4cccc(COc5ccc(Cl)cc5F)n4)CC3)n(Cc3ncco3)c2c1 [Compound 268, 2-{[4-({6-[(4-chloro-2-fluorophenoxy)methyl]pyridin-2-yl}oxy)piperidin-1-yl]methyl}-1-[(1,3-oxazol-2-yl)methyl]-1H-1,3-benzodiazole-6-carboxylic acid]
5 | 50 to 500 nM | N#Cc1cc(Cl)ccc1OCc1cccc(OC2CCN(Cc3nc4ccc(C(=O)O)cc4n3C[C@@H]3CCO3)CC2)n1 [Compound 248, 2-{[4-({6-[(4-chloro-2-cyanophenoxy)methyl]pyridin-2-yl}oxy)piperidin-1-yl]methyl}-1-{[(2S)-oxetan-2-yl]methyl}-1H-1,3-benzodiazole-6-carboxylic acid]
6 | < 50 nM | C[C@H]1C[C@H](Oc2ccnc(COc3ccc(Cl)cc3Cl)c2)CCN1Cc1nc2ccc(C(=O)O)cc2n1C[C@@H]1CCO1 [Compound 295, 2-{[(2S,4R)-4-({2-[(2,4-dichlorophenoxy)methyl]pyridin-4-yl}oxy)-2-methylpiperidin-1-yl]methyl}-1-{[(2S)-oxetan-2-yl]methyl}-1H-1,3-benzodiazole-6-carboxylic acid]
7 | > 500 nM | Cc1ccc(S(=O)(=O)Nc2cccc(C(=O)N3CCN(Cc4nc5ccc(C(=O)O)cc5n4C[C@@H]4CCO4)CC3)c2)cc1 [Compound 70, 2-({4-[3-(4-methylbenzenesulfonamido)benzoyl]piperazin-1-yl}methyl)-1-{[(2S)-oxetan-2-yl]methyl}-1H-1,3-benzodiazole-6-carboxylic acid]
8 | < 50 nM | N#Cc1ccc(OCc2nccc(OC3CCN(Cc4nc5ccc(C(=O)O)cc5n4C[C@@H]4CCO4)CC3)n2)c(Cl)c1 [Compound 369]
9 | > 500 nM | O=C(O)c1ccc2nc(CN3CCN(Cc4cc5ccc(-c6ccc(Cl)cc6F)cc5o4)CC3)n(C[C@@H]3CCO3)c2c1 [Compound 28, 2-[(4-{[6-(4-chloro-2-fluorophenyl)-1-benzofuran-2-yl]methyl}piperazin-1-yl)methyl]-1-{[(2S)-oxetan-2-yl]methyl}-1H-1,3-benzodiazole-6-carboxylic acid]
10 | < 50 nM | O=C(O)c1cc(F)c2nc(CN3CCC(Oc4cccc(COc5ccc(C(F)F)cc5F)c4)CC3)n(C[C@@H]3CCO3)c2c1 [Compound 310]
11 | < 50 nM | O=C(O)c1ccc2nc(CN3CCC(Oc4cccc(COc5ccc(Cl)cc5F)n4)CC3)n(Cc3ccno3)c2c1 [Compound 270, 2-{[4-({6-[(4-chloro-2-fluorophenoxy)methyl]pyridin-2-yl}oxy)piperidin-1-yl]methyl}-1-[(1,2-oxazol-5-yl)methyl]-1H-1,3-benzodiazole-6-carboxylic acid]
12 | < 50 nM | CCn1cncc1Cn1c(CN2CCC(Oc3cccc(COc4ccc(Cl)cc4Cl)c3)CC2)nc2ccc(C(=O)O)cc21 [Example 157, 2-((4-(3-((2,4-Dichlorophenoxy)methyl)phenoxy)piperidin-1-yl)methyl)-1-((1-ethyl-1H-imidazol-5-yl)methyl)-1H-benzo[d]imidazole-6-carboxylic acid]
13 | 50 to 500 nM | O=C(O)c1ccc2nc(CN3CCC(Oc4cc(COc5ccc(Cl)cc5Cl)ccn4)CC3)n(C[C@@H]3CCO3)c2c1 [Example 178, (S)-2-((4-((4-((2,4-Dichlorophenoxy)methyl)pyridin-2-yl)oxy)piperidin-1-yl)methyl)-1-(oxetan-2-ylmethyl)-1H-benzo[d]imidazole-6-carboxylic acid]
14 | < 50 nM | O=C(O)c1ccc2nc(CN3CCC(Oc4ccnc(COc5ccc(Cl)cc5Cl)c4)CC3)n(Cc3ccno3)c2c1 [Compound 257, 2-{[4-({2-[(2,4-dichlorophenoxy)methyl]pyridin-4-yl}oxy)piperidin-1-yl]methyl}-1-[(1,2-oxazol-5-yl)methyl]-1H-1,3-benzodiazole-6-carboxylic acid]
15 | < 50 nM | N#Cc1ccc(OCc2nccc(OC3CCN(Cc4nc5ccc(C(=O)O)cc5n4C[C@@H]4CCO4)CC3)n2)c(F)c1 [Example 262, (S)-2-((4-((2-((4-Cyano-2-fluorophenoxy)methyl)pyrimidin-4-yl)oxy)piperidin-1-yl)methyl)-1-(oxetan-2-ylmethyl)-1H-benzo[d]imidazole-6-carboxylic acid]
16 | > 500 nM | N#Cc1ccc(OCc2ccc(C(=O)N3CCN(Cc4nc5ccc(C(=O)O)cc5n4C[C@@H]4CCO4)CC3)o2)c(F)c1 [Compound 37, 2-[(4-{5-[(4-cyano-2-fluorophenoxy)methyl]furan-2-carbonyl}piperazin-1-yl)methyl]-1-{[(2S)-oxetan-2-yl]methyl}-1H-1,3-benzodiazole-6-carboxylic acid]
17 | > 500 nM | COC(=O)c1ccc2nc(CN3CCN(C(=O)c4ccc(COc5cccc(Cl)c5C)o4)CC3)n(C[C@@H]3CCO3)c2c1 [Compound 24, methyl 2-[(4-{5-[(3-chloro-2-methylphenoxy)methyl]furan-2-carbonyl}piperazin-1-yl)methyl]-1-{[(2S)-oxetan-2-yl]methyl}-1H-1,3-benzodiazole-6-carboxylate]
18 | 50 to 500 nM | CCn1cncc1Cn1c(CN2CCN(C(=O)c3cccc(N(C)c4ccc(C)cc4)c3)CC2)nc2ccc(C(=O)O)cc21 [Example 46, 1-((1-Ethyl-1H-imidazol-5-yl)methyl)-2-((4-(3-(methyl(p-tolyl)amino)benzoyl)piperazin-1-yl)methyl)-1H-benzo[d]imidazole-6-carboxylic acid]
19 | < 50 nM | O=C(O)c1ccc2nc(CN3CCC(Oc4cccc(COc5ccc(Cl)cc5Cl)c4)CC3)n(C[C@@H]3CCO3)c2c1 [Compound 174, 2-[(4-{3-[(2,4-dichlorophenoxy)methyl]phenoxy}piperidin-1-yl)methyl]-1-{[(2S)-oxetan-2-yl]methyl}-1H-1,3-benzodiazole-6-carboxylic acid]
20 | < 50 nM | CCn1cncc1Cn1c(CN2CCC(Cc3cccc(COc4ccc(Cl)cc4Cl)c3)CC2)nc2ccc(C(=O)O)cc21 [Compound 104, 2-{[4-({3-[(2,4-dichlorophenoxy)methyl]phenyl}methyl)piperidin-1-yl]methyl}-1-[(1-ethyl-1H-imidazol-5-yl)methyl]-1H-1,3-benzodiazole-6-carboxylic acid]
21 | < 50 nM | Cc1ccc(N(C)c2cccc(C(=O)N3CCN(Cc4nc5ccc(C(=O)O)cc5n4C[C@@H]4CCO4)CC3)c2)c(Cl)c1 [Compound 51, 2-[(4-{3-[(2-chloro-4-methylphenyl)(methyl)amino]benzoyl}piperazin-1-yl)methyl]-1-{[(2S)-oxetan-2-yl]methyl}-1H-1,3-benzodiazole-6-carboxylic acid]
22 | 50 to 500 nM | O=C(O)c1ccc2nc(CN3CCN(C(=O)c4ccc(COc5ccc(Cl)cc5Cl)o4)CC3)n(C[C@@H]3CCO3)c2c1 [Compound 26, 2-[(4-{5-[(2,4-dichlorophenoxy)methyl]furan-2-carbonyl}piperazin-1-yl)methyl]-1-{[(2S)-oxetan-2-yl]methyl}-1H-1,3-benzodiazole-6-carboxylic acid]
23 | < 50 nM | N#Cc1ccc(OCc2cc(OC3CCN(Cc4nc5ccc(C(=O)O)cc5n4C[C@@H]4CCO4)CC3)ccn2)c(F)c1 [Compound 277, 2-{[4-({2-[(4-cyano-2-fluorophenoxy)methyl]pyridin-4-yl}oxy)piperidin-1-yl]methyl}-1-{[(2S)-oxetan-2-yl]methyl}-1H-1,3-benzodiazole-6-carboxylic acid]
24 | > 500 nM | O=C(O)c1ccc2nc(CN3CCN(C(=O)c4cccc(Oc5cc(Cl)ccc5Cl)c4)CC3)n(C[C@@H]3CCO3)c2c1 [Compound 11, 2-({4-[3-(2,5-dichlorophenoxy)benzoyl]piperazin-1-yl}methyl)-1-{[(2S)-oxetan-2-yl]methyl}-1H-1,3-benzodiazole-6-carboxylic acid]
25 | < 50 nM | Cn1cncc1Cn1c(CN2CCC(Oc3ccnc(COc4ccc(Cl)cc4F)c3)CC2)nc2ccc(C(=O)O)cc21 [Compound 267, 2-{[4-({2-[(4-chloro-2-fluorophenoxy)methyl]pyridin-4-yl}oxy)piperidin-1-yl]methyl}-1-[(1-methyl-1H-imidazol-5-yl)methyl]-1H-1,3-benzodiazole-6-carboxylic acid]
26 | > 500 nM | N#Cc1cc(Cl)ccc1OCc1cccc(OC2CCN(Cc3nc4ccc(C(=O)O)cc4n3Cc3ccno3)CC2)n1 [Compound 253, 2-{[4-({6-[(4-chloro-2-cyanophenoxy)methyl]pyridin-2-yl}oxy)piperidin-1-yl]methyl}-1-[(1,2-oxazol-5-yl)methyl]-1H-1,3-benzodiazole-6-carboxylic acid]

Row | Structure (SMILES) | EC50
27 | Cc1ccc(N(C)c2cccc(C(=O)N3CC4CCC(C3)N4Cc3nc4ccc(C(=O)O)cc4n3C[C@@H]3CCO3)c2)c(Cl)c1 [Compound 87, 2-[(3-{3-[(2-chloro-4-methylphenyl)(methyl)amino]benzoyl}-3,8-diazabicyclo[3,2.1]octan-8-yl)methyl]-1-{[(2S)-oxetan-2-yl]methyl}-1H-1,3-benzodiazole-6-carboxylic acid] | 50 to 500 nM
